From PMC7179653 (Antimicrobial Agents and Chemotherapy, 2020)

Experiments:
[1] = Intensive ECG monitoring and exposure-response analysis of QTcF; assay type: in vivo, human
Method: Safety assessments included monitoring of AEs, laboratory safety tests (hematology, serum chemistry, and urinalysis), 12-lead ECG (discrete recordings and 24-h Holter recording), and vital signs (blood pressure, pulse rate, and body temperature). In the SAD study, safety assessments were performed predose at screening, at day 1, postdose periodically on days 1, 2, and 7 (follow-up), and at early withdrawal, if relevant. […] In the MAD study, safety assessments were done predose at screening, at day 2, postdose periodically on days 1, 2, 4, 7, and 8, on days 13 to 15 (follow-up), and at early withdrawal, if relevant. […] On all other days, a single predose sample was collected for pharmacokinetic evaluation prior to the morning infusion. Blood was collected into lithium-heparin tubes and stored at a nominal –80°C temperature until analysis.

[2] = MAD study: safety and tolerability (TEAEs, laboratory safety tests); assay type: in vivo, human; settings: for TEAE: Catheter site pain / TEAE: Diarrhea / TEAE: Ecchymosis / TEAE: Headache / TEAE: Infusion site extravasation / TEAE: Injection site erythema / TEAE: Injection site extravasation / TEAE: Injection site hemorrhage / TEAE: Injection site injury / TEAE: Injection site pain / TEAE: Medical device site erythema (erythema at the ECG patch sites) / TEAE: Nausea / TEAE: Phlebitis / TEAE: Scratch / TEAE: Vessel puncture site hemorrhage / Withdrawn due to AE / ≥1 TEAE / ≥1 drug-related TEAE / ≥1 serious TEAE: n = 6
Method: The MAD study consisted of three parts (Fig. 1). […] Participants were enrolled in two sequential cohorts (cohort 1, followed by cohort 2). […] Participants were also enrolled in two sequential cohorts (cohort 3, followed by cohort 4). […] A washout period of approximately 24 h between treatments was provided. A sentinel dosing strategy was employed in both studies. […] In all cohorts, escalation to the next dose occurred after a safety review of the previous cohort. In the MAD study, sentinel dosing was performed in part 3, wherein participants were evaluated for safety up to 24 h after administration of the first drug combination (or placebo) on day 3, prior to enrolling additional participants. Safety assessments included monitoring of AEs, laboratory safety tests (hematology, serum chemistry, and urinalysis), 12-lead ECG (discrete recordings and 24-h Holter recording), and vital signs (blood pressure, pulse rate, and body temperature). In the SAD study, safety assessments were performed predose at screening, at day 1, postdose periodically on days 1, 2, and 7 (follow-up), and at early withdrawal, if relevant. […] In the MAD study, safety assessments were done predose at screening, at day 2, postdose periodically on days 1, 2, 4, 7, and 8, on days 13 to 15 (follow-up), and at early withdrawal, if relevant. […] On all other days, a single predose sample was collected for pharmacokinetic evaluation prior to the morning infusion. Blood was collected into lithium-heparin tubes and stored at a nominal –80°C temperature until analysis.

[3] = MAD parts 1 and 2, 8,000 mg (single dose)

## NCCONC(=O)[C@@H]1CC[C@@H]2CN1C(=O)N2OS(=O)(=O)O [Nacubactam]
[1]; 90% CI, 3.8879 to 1.9931, P = 0.59
  treatment estimate, linear model of change in QTcF vs plasma concentration: 0.9474
[1]; P = 0.73
  slope estimate, linear model of change in QTcF vs plasma concentration: 0.00422
[1]; at the Cmax of 325 μg/ml, each of the three models
  upper limit of the two-sided 90% CI of predicted change from baseline in QTcF: < 10 ms
[1]; at the Cmax of 325 μg/ml, each of the three models (linear, quadratic, log-linear)
  predicted mean change from baseline in QTcF: < 3 ms
[1]; nacubactam alone, intensive ECG monitoring
  effect on QTc interval duration, other ECG intervals, or ECG morphology: did not reveal any significant effects
[2]; MAD monotherapy phase (parts 1 and 2), 13 of the 24 participants
  participants reporting AEs: 54.2%
[2]; MAD monotherapy phase (parts 1 and 2), 24 participants
  total number of AEs: 48
[2]; MAD parts 1 and 2, 1,000 mg
  TEAE: Catheter site pain: 1/1
  TEAE: Diarrhea: 0 n/E
  TEAE: Ecchymosis: 1/1
  TEAE: Headache: 1/1
  TEAE: Infusion site extravasation: 1/1
  TEAE: Injection site erythema: 1/1
  TEAE: Injection site extravasation: 0 n/E
  TEAE: Injection site hemorrhage: 0 n/E
  TEAE: Injection site injury: 0 n/E
  TEAE: Injection site pain: 0 n/E
  TEAE: Medical device site erythema (erythema at the ECG patch sites): 0 n/E
  TEAE: Nausea: 0 n/E
  TEAE: Phlebitis: 0 n/E
  TEAE: Scratch: 0 n/E
  TEAE: Vessel puncture site hemorrhage: 0 n/E
  Withdrawn due to AE: 0 n
  ≥1 TEAE: 4/8
  ≥1 drug-related TEAE: 2/2
  ≥1 serious TEAE: 0 n
[2]; MAD parts 1 and 2, 2,000 mg
  TEAE: Catheter site pain: 0 n/E
  TEAE: Diarrhea: 0 n/E
  TEAE: Ecchymosis: 0 n/E
  TEAE: Headache: 0 n/E
  TEAE: Infusion site extravasation: 0 n/E
  TEAE: Injection site erythema: 0 n/E
  TEAE: Injection site extravasation: 1/1
  TEAE: Injection site hemorrhage: 0 n/E
  TEAE: Injection site injury: 0 n/E
  TEAE: Injection site pain: 0 n/E
  TEAE: Medical device site erythema (erythema at the ECG patch sites): 0 n/E
  TEAE: Nausea: 0 n/E
  TEAE: Phlebitis: 0 n/E
  TEAE: Scratch: 0 n/E
  TEAE: Vessel puncture site hemorrhage: 0 n/E
  Withdrawn due to AE: 0 n
  ≥1 TEAE: 2/3
  ≥1 drug-related TEAE: 2/2
  ≥1 serious TEAE: 0 n
[2]; MAD parts 1 and 2, 4,000 mg
  TEAE: Catheter site pain: 0 n/E
  TEAE: Diarrhea: 0 n/E
  TEAE: Ecchymosis: 0 n/E
  TEAE: Headache: 1/1
  TEAE: Infusion site extravasation: 0 n/E
  TEAE: Injection site erythema: 1/1
  TEAE: Injection site extravasation: 1/1
  TEAE: Injection site hemorrhage: 2/2
  TEAE: Injection site injury: 2/2
  TEAE: Injection site pain: 3/3
  TEAE: Medical device site erythema (erythema at the ECG patch sites): 4/4
  TEAE: Nausea: 0 n/E
  TEAE: Phlebitis: 0 n/E
  TEAE: Scratch: 1/1
  TEAE: Vessel puncture site hemorrhage: 2/2
  Withdrawn due to AE: 0 n
  ≥1 TEAE: 6/36
  ≥1 drug-related TEAE: 3/3
  ≥1 serious TEAE: 0 n
[2]; [3]
  TEAE: Catheter site pain: 0 n/E
  TEAE: Diarrhea: 0 n/E
  TEAE: Ecchymosis: 0 n/E
  TEAE: Headache: 0 n/E
  TEAE: Infusion site extravasation: 0 n/E
  TEAE: Injection site erythema: 0 n/E
  TEAE: Injection site extravasation: 0 n/E
  TEAE: Injection site hemorrhage: 0 n/E
  TEAE: Injection site injury: 0 n/E
  TEAE: Injection site pain: 0 n/E
  TEAE: Medical device site erythema (erythema at the ECG patch sites): 0 n/E
  TEAE: Nausea: 0 n/E
  TEAE: Phlebitis: 0 n/E
  TEAE: Scratch: 0 n/E
  TEAE: Vessel puncture site hemorrhage: 0 n/E
  Withdrawn due to AE: 0 n
  ≥1 TEAE: 1/1
  ≥1 drug-related TEAE: 0 n/E
  ≥1 serious TEAE: 0 n
[2]; all single doses up to 8,000 mg and multiple doses up to 4,000 mg q8h
  tolerability: well tolerated
[2]; alone (50 to 8,000 mg) or coadministered with meropenem (2,000 mg each), both studies
  serious AEs: no serious AEs were reported
[2]; nacubactam alone, validated measures of renal function and exploratory urine kidney biomarkers
  effect on kidney function: no significant effects on kidney function
